Test results reported in patent publication US8354447B2, “mGLU receptors antagonists for treating disorders associated with mGLU receptors including addiction and depression” (The Scripps Research Institute, priority 2002, dated 2013).

Key:
male Wistar rats [1] = experiment: ICSS thresholds during and after withdrawal from chronic nicotine, bupropion; assay type: in vivo, rat
Excerpt: Trials began with an electrical stimulus followed by a 7.5-s response window within which the animal could make a response to receive a second contingent stimulus identical to the initial noncontingent stimulus. A response during this 7.5-s window was considered a positive response, whereas the lack of a response was considered a negative response. Additional responses during a 2-s period immediately following a positive response had no consequence. The intertrial interval (ITI) that followed either a positive response or the end of the response window (in the case of a negative response) ranged from 7.5 to 12.5 s with an average duration of 10 s. […] Subjects then were tested on a current-threshold procedure in which stimulus intensities were varied during four alternating descending and ascending series with a step size of […]. Blocks of three trials were offered at each current step with the starting current of the first descending series set at […] above the subjects' individual baseline thresholds estimated at the end of preliminary training. […] An ascending series was terminated after two consecutive blocks of trials during which the animal made positive responses on at least two out of the three trials or after 15 successive increments were presented. The mean of the four current thresholds from the alternating series was defined as the subject's ICSS threshold for that session. A series was terminated after either 15 stimulus increments (or decrements) had occurred, or after the determination of the threshold for the series (see below). Each test session typically lasted 30 min.
Naive animals were prepared with osmotic minipumps containing either an individualized nicotine solution (3.16 mg/kg per day, free base) or saline. […] After implantation of the minipumps, thresholds were assessed daily thereafter to assess the effects of chronic nicotine exposure on reward thresholds. Seven days (exactly seven 24-h periods) after pump insertion, the pumps were removed in order to precipitate the nicotine withdrawal syndrome. ICSS thresholds were measured 12, 18, 24, 36, 48 and 72 h after pump removal. Animals were injected with bupropion (0, 10, 20, 40 mg/kg IP; n=8-11) 30 min prior to the 18-h time point.

[2] = 9 mg/kg/day nicotine salt (3.16 mg/kg, free base) by osmotic mini-pump; cited from earlier work
male Wistar rats [3] = experiment: Nicotine self-administration and food-maintained responding on a fixed ratio schedule in rats; assay type: in vivo, rat
Method: Two additional groups of rats were allowed to respond for food (45 mg Noyes food pellet) under a FR5 TO20 sec (n=10), and a FR5 TO210 sec (n=10) schedule. The two different schedules were employed to allow assessment of the effects of MPEP on responding for food under a reinforcement schedule (FR5 TO20 sec) identical to that used for nicotine, and under a reinforcement schedule (FR5 TO210) that equated response rates for food to those seen for nicotine. […] All test sessions were conducted for one hour per day, five days per week.
After acquiring stable nicotine self-administration at either 0.01 mg/kg/infusion (n=9) or 0.03 mg/kg/infusion (n=9), or stable food-maintained responding on the FR5 TO 20 sec schedule (n=10) or the FR5 TO210 sec schedule (n=10), drug testing was initiated. MPEP (0, 1, 3 and 9 mg/kg) was administered intraperitoneally 30 minutes before the session, according to a Latin Square design, with at least six days elapsing between each test dose.

Wistar rats [4] = experiment: Cocaine self-administration under a fixed ratio schedule, ShA and LgA rats; assay type: in vivo, rat
Method: Rats (n=14) were food restricted to maintain them at 85% of their normal body weight obtained under free-feeding conditions, then trained to press a lever for 45 mg food pellets on a fixed-ratio 5 (FR5) schedule of reinforcement. […] Thus, a FR5 TO20 sec schedule of reinforcement was used.
The frequency of the stimulation was selected for individual animals so that baseline current-intensity thresholds of each subject were within 50-200 μA, and thus allowed both threshold elevations and lowerings to be detected. The frequency was held constant throughout the experiment. […] Current intensities were altered in 5 μA steps. […] Each testing session was ~30 min in duration. […] From day 10 onwards (the ‘escalation’ period), access to cocaine self-administration was increased from 1 h to 6 h per daily session in one group of rats (Long Access or LgA rats; n=7). Previous studies have shown that this schedule of access to cocaine self-administration results in a progressive increase or ‘escalation’ in daily cocaine consumption (Ahmed and Koob, 1997; Ahmed et al. 2001). In the other group (Short Access or ShA rats; n=7), access to cocaine self-administration was maintained at 1 h per daily session. Previous studies have shown that this schedule of access to cocaine self-administration maintains a stable level of daily cocaine consumption. After 22 days of 1 h (ShA) or 6 h (LgA) daily access to cocaine self-administration, both groups of rats received their first MPEP injection.

Wistar rats [5] = experiment: Cocaine, nicotine and food responding under a progressive ratio schedule; assay type: in vivo, rat
Excerpt: Under a fixed ratio schedule of reinforcement, as described above, an animal responds a ‘fixed’ number of times on an active lever to obtain a drug infusion. Fixed ratio (FR) schedules of reinforcement provide important information on whether a drug is reinforcing. […] By determining how hard an animal is willing to work for a drug, while limiting total intake, the PR schedule allows better separation of motivation for drug consumption from possible satiating effects of cumulative drug doses (Stafford et al. 1998). Such characteristics result in theoretically different interpretations of the factors controlling drug-seeking behavior on a PR compared with a FR. […] After acquisition of cocaine or nicotine self-administration under an FR, as described above, rats were switched to a PR schedule of reinforcement in which the following sequence of level presses was required to receive each subsequent infusion of nicotine or cocaine: 5, 10, 17, 24, 32, 42, 56, 73, 95, 124, 161, 208, etc. Rats were injected with MPEP (0, 1, 3 or 9 mg/kg) 30 min prior to each PR session. All PR sessions lasted for 3 h. All subjects reached breaking-points during the 3 hour session.

mice = conditions: Chiamulera et al. 2001; cited from earlier work

For `CN1CCCC1c1cccnc1` (single isomer, unassigned; (-)) [nicotine, (−)-1-methyl-2-(3-pyridyl) pyrrolidine], the “day of maximal threshold-lowering effect” value (male Wistar rats [1]; nicotine via minipumps) was 3 days, the brain reward threshold (male Wistar rats [1]; nicotine via minipumps 3.16 mg/kg per day for 7 days) was “small yet significant reduction in brain reward threshold” and the “time points with significant elevation in reward thresholds post-withdrawal” value (male Wistar rats [1]; nicotine withdrawal, saline-injected animals) was “up to 36 h”. The brain reward thresholds (male Wistar rats [1]; withdrawal from chronic nicotine administration) was “significantly elevated brain reward thresholds” and the “stable plasma nicotine levels” value [2] was about 44 ng/mL.
With `Cc1cccc(C#Cc2ccccc2)n1` [MPEP, 2-methyl-6-(phenylethynyl)-pyridine] the “Number of reinforcers earned during the entire 1 hour session” value (shortened to “Number”) (male Wistar rats [3]; 1 mg/kg MPEP, 0.01 mg/kg/inf nic, FR5 TO20 sec) was 21 ± 3.1, the “Number” value (male Wistar rats [3]; 1 mg/kg MPEP, 0.03 mg/kg/inf nic, FR5 TO20 sec) was 13 ± 1.9 and the “Number” value (male Wistar rats [3]; 1 mg/kg MPEP, 45 mg food pellet, FR5 TO20 sec) was 131.3 ± 8.2. For the same compound, the “Number” value (male Wistar rats [3]; 1 mg/kg MPEP, 45 mg food pellet, FR5 TO210 sec) was 16.3 ± 0.3, the “Number” value (male Wistar rats [3]; 3 mg/kg MPEP, 0.01 mg/kg/inf nic, FR5 TO20 sec) was 11 ± 2.7 and the “Number” value (male Wistar rats [3]; 3 mg/kg MPEP, 0.03 mg/kg/inf nic, FR5 TO20 sec) was 11.4 ± 1.2. The “Number” value (male Wistar rats [3]; 3 mg/kg MPEP, 45 mg food pellet, FR5 TO20 sec) was 122.2 ± 7.4, the “Number” value (male Wistar rats [3]; 3 mg/kg MPEP, 45 mg food pellet, FR5 TO210 sec) was 15.2 ± 0.5 and the “Number” value (male Wistar rats [3]; 9 mg/kg MPEP, 0.01 mg/kg/inf nic, FR5 TO20 sec) was 9.1 ± 3.0. The “Number” value (male Wistar rats [3]; 9 mg/kg MPEP, 0.03 mg/kg/inf nic, FR5 TO20 sec) was 4.8 ± 1.5, the “Number” value (male Wistar rats [3]; 9 mg/kg MPEP, 45 mg food pellet, FR5 TO20 sec) was 109 ± 12.98 and the “Number” value (male Wistar rats [3]; 9 mg/kg MPEP, 45 mg food pellet, FR5 TO210 sec) was 15.2 ± 0.6. For the same compound, the nicotine self-administration (male Wistar rats [3]; 3 and 9 mg/kg MPEP, 0.01 mg/kg/infusion nicotine) was “significantly reduced self-administration of the 0.01 mg/kg/infusion nicotine dose relative to the vehicle condition”, the nicotine self-administration (male Wistar rats [3]; MPEP 1, 3, 9 mg/kg, 0.03 mg/kg/inf nicotine) was “decreasing self-administration of the 0.03 mg/kg/inf dose only at 9 mg/kg” and the inactive lever presses (male Wistar rats [3]; MPEP 1-9 mg/kg) was “no effect of MPEP on inactive lever presses for any of the reinforcers”. For the same compound, the cocaine responding (Wistar rats [4]; 3, 6 and 9 mg/kg MPEP, ShA and LgA rats collapsed) was “significantly decreased cocaine responding in the collapsed group”, the cocaine responding (Wistar rats [4]; 3, 6 and 9 mg/kg MPEP, ShA rats) was “significantly decreased cocaine responding in ShA rats” and the cocaine self-administration (Wistar rats [4]; MPEP 1-9 mg/kg, FR5 TO20 sec) was “decreased cocaine self-administration in ShA and LgA rats”. For the same compound, the cocaine responding (Wistar rats [4]; only the highest dose of MPEP (9 mg/kg), LgA rats) was “significantly decreased cocaine responding in LgA rats”, the responding for food (Wistar rats [5]; MPEP 1-9 mg/kg, PR schedule) was “no statistically significant effect on responding for food” and the “responding under a progressive ratio schedule (motivation)” value (Wistar rats [5]; MPEP 1-9 mg/kg, cocaine, nicotine, food) was “decreased the motivation of rats to obtain cocaine or nicotine without affecting their motivation for food”. For the same compound, the break point (Wistar rats [5]; PR schedule, cocaine and nicotine) was “significantly lowered the break point for cocaine and nicotine” and the cocaine self-administration (mice) was “dose-dependent reduction in cocaine self-administration without affecting responding for food”.
